# Source: patent publication US20020061839A1, “Serine peptidase modulators” (priority 1998, published 2002)
# Target: T1, Prolyl oligopeptidase (Homo sapiens, UniProt P48147)
# T1 construct: Prolyl oligopeptidase was purified from human platelets; from tissue; host or cells: human platelets
# T1 sequence (P48147 1-710): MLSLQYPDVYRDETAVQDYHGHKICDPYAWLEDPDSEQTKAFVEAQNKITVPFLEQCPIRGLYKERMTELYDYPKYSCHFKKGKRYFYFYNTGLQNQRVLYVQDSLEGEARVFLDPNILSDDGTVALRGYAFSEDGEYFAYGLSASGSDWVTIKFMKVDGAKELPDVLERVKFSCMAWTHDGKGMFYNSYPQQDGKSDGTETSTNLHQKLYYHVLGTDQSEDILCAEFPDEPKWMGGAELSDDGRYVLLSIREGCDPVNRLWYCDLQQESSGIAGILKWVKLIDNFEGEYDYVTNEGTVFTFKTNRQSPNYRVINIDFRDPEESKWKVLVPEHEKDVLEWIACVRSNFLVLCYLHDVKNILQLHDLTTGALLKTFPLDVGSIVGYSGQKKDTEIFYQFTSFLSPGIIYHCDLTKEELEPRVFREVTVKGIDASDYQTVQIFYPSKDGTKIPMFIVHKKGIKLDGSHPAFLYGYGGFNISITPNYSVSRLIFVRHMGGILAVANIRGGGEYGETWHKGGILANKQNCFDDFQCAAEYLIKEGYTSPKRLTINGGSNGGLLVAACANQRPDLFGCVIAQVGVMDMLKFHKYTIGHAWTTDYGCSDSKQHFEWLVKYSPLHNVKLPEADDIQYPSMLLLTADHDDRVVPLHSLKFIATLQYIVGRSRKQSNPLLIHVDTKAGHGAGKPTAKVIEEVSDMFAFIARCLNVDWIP
# Assay: Inhibition of prolyl oligopeptidase (PO), Z-Gly-Pro-AMC substrate
# Type: biochemical
# Conditions: PO from human platelets, 20 min at 37° C.
# Protocol: Prolyl oligopeptidase was purified from human platelets and the enzyme activity was measured using Z—Gly—Pro—AMC (4.4 mM) as the substrate in a K-phosphate buffer 100 mM, pH 7.5 containing 1 EM EDTA, 1 mM dithiothreitol and 1 mM NaN3. The incubation was carried out during 20 min at 37° C. The reaction was stopped by the addition of 5 volumes 1.5 M acetic acid. Fluorescence was measured at 370 and 440 nm as excitation and emission wavelengths respectively. The inhibitors were added at concentrations varying between 1 μM and 1 mM.
row,Compound,IC50
1,"CC(=O)Nc1cccc(OP(=O)(Oc2cccc(NC(C)=O)c2)C2CCCN2C(=O)[C@@H]2CCCN2C(=O)OCc2ccccc2)c1 (mixture of isomers) [10d, Di(3-acetamidophenyl) 1-(benzyloxycarbonyl-(S)-prolyl)-pyrrolidine-2(R,S)-phosphonate]",10 µM
2,"CC(=O)Nc1ccc(OP(=O)(Oc2ccc(NC(C)=O)cc2)C2CCCN2C(=O)[C@@H]2CCCN2C(=O)OCc2ccccc2)cc1 (mixture of isomers) [10e, Di(4-acetamidophenyl) 1-(benzyloxycarbonyl-(S)-prolyl)-pyrrolidine-2(R,S)-phosphonate]",21 µM
3,"CS(=O)(=O)Nc1ccc(OP(=O)(Oc2ccc(NS(C)(=O)=O)cc2)C2CCCN2C(=O)[C@@H]2CCCN2C(=O)OCc2ccccc2)cc1 (mixture of isomers) [10f, Di(4-methylsulfonylaminophenyl) 1-(benzyloxycarbonyl-(S)-prolyl)pyrrolidine-2(R,S)-phosphonate]",10 µM
4,"O=C(CNC(=O)c1ccccc1)Nc1ccc(OP(=O)(Oc2ccc(NC(=O)CNC(=O)c3ccccc3)cc2)C2CCCN2C(=O)[C@@H]2CCCN2C(=O)OCc2ccccc2)cc1 (mixture of isomers) [10h, Di[4-(N-benzoylglycylamino)phenyl]-1-(benzyloxycarbonyl-(S)-prolyl)pyrrolidine-2(R,S)-phosphonate]",12 µM
5,"O=C(CNC(=O)OCc1ccccc1)Nc1ccc(OP(=O)(Oc2ccc(NC(=O)CNC(=O)OCc3ccccc3)cc2)C2CCCN2C(=O)[C@@H]2CCCN2C(=O)OCc2ccccc2)cc1 (mixture of isomers) [10i, Di[4-(N-benzyloxycarbonylglycylamino)phenyl]-1-(benzyloxycarbonyl-(S)-prolyl)pyrrolidine-2(R,S)-phosphonate]",15 µM
6,"COC(=O)[C@H](Cc1ccc(OP(=O)(Oc2ccc(C[C@H](NC(C)=O)C(=O)OC)cc2)C2CCCN2C(=O)[C@@H]2CCCN2C(=O)OCc2ccccc2)cc1)NC(C)=O (mixture of isomers) [10l, Di{4-[-(S)-(2-methoxycarbonyl-2-acetamido)ethyl]phenyl}1-(benzyloxycarbonyl-(S)-prolyl)pyrrolidine-2(R,S)-phosphonate]",20 µM
7,"CCOC(=O)CNC(=O)c1ccc(OP(=O)(Oc2ccc(C(=O)NCC(=O)OCC)cc2)C2CCCN2C(=O)[C@@H]2CCCN2C(=O)OCc2ccccc2)cc1 (mixture of isomers) [10n, Di{4-[(ethoxycarbonyl)methylaminocarbonyl]phenyl}1-(benzyloxycarbonyl-(S)-prolyl)-pyrrolidine-2(R,S)-phosphonate]",5 µM
8,"COC(=O)CCNC(=O)c1ccc(OP(=O)(Oc2ccc(C(=O)NCCC(=O)OC)cc2)C2CCCN2C(=O)[C@@H]2CCCN2C(=O)OCc2ccccc2)cc1 (mixture of isomers) [10o, Di{4-[2-(methoxycarbonyl)ethylaminocarbonyl]phenyl}1-(benzyloxycarbonyl-(S)-prolyl)-pyrrolidine-2(R,S)-phosphonate]",2.8 µM
9,"CCCNC(=O)c1ccc(OP(=O)(Oc2ccc(C(=O)NCCC)cc2)C2CCCN2C(=O)[C@@H]2CCCN2C(=O)OCc2ccccc2)cc1 (mixture of isomers) [10p, Di[4-(n-propylaminocarbonyl)phenyl]1-(benzyloxycarbonyl-(S)-prolyl)-pyrrolidine-2(R,S)-phosphonate]",3.2 µM
